In patent US20060100245A1, “Substituted biphenyl-4-carboxylic acid arylamide analogues” (Neurogen Corporation, priority 2002, published 2006):
pKi: −log10 of the molar value.

The molecules below were run against T1, human capsaicin receptor (VR1) (Homo sapiens, UniProt Q8NER1) (assay: Capsaicin receptor binding assay ([3H]RTX competition)). Conditions: read-out: Ki.
T1 construct: transfected with the pBK-CMV expression construct encoding the full length human capsaicin receptor; expressed in transfected cells
T1 sequence (Q8NER1 whole entry): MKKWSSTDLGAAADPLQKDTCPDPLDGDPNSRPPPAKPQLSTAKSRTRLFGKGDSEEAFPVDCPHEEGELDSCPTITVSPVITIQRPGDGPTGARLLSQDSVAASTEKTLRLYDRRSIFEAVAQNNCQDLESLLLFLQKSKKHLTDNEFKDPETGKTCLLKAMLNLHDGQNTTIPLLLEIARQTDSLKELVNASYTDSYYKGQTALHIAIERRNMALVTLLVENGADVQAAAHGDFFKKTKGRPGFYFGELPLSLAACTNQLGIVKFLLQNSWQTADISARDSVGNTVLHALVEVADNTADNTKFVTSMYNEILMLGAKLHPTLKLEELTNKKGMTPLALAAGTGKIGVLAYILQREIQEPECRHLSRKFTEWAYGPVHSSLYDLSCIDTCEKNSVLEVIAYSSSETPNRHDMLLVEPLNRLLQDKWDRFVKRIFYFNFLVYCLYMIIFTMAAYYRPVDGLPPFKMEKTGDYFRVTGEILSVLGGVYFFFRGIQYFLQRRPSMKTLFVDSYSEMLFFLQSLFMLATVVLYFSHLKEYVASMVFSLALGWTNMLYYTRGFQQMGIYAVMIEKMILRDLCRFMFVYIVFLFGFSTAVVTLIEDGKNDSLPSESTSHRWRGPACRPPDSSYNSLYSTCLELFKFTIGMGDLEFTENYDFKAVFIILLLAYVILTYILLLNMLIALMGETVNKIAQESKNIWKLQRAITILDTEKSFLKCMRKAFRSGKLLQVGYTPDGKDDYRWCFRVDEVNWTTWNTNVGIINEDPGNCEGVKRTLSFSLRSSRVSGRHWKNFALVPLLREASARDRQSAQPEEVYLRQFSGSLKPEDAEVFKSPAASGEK
Method in brief: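 Membranes from HEK293 cells stably expressing full-length human VR1; competition against 60 pM [3H]RTX, 60 min at 37 °C in HEPES/sucrose buffer pH 7.4 with 0.25 mg/ml BSA. Non-specific binding defined with 1 μM unlabelled RTX; alpha1-acid glycoprotein added after termination on ice.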
CCS(=O)(=O)Nc1cccnc1-c1ccc(C(=O)Nc2ccc(C(C)(C)C)cc2)cc1 [Compound 408, N-(4-tert-Butyl-phenyl)-4-(3-ethanesulfonylamino-pyridin-2-yl)-benzamide] was tested, and the pKi was > 6.00. With O=C(Nc1ccc(C(F)(F)F)cc1)c1ccc(-c2ccccc2Cl)nc1 [Compound 78, 6-(2-Chloro-phenyl)-N-(4-trifluoromethyl-phenyl)-nicotinamide] the pKi was > 6.00. CC(C)c1ccc(NC(=O)c2ccc(-c3ccccc3F)nc2)cc1 [Compound 89, 6-(2-Fluoro-phenyl)-N-(4-isopropyl-phenyl)-nicotinamide] was tested, and the pKi was > 6.00. In the case of Cc1cccc(-c2ccc(C(=O)Nc3ccc4sc(C)nc4c3)cn2)c1 [Compound 208, N-(2-Methyl-benzothiazol-5-yl)-6-m-tolyl-nicotinamide], the pKi was > 6.00. For CC(C)(C)c1cccc(NC(=O)c2ccc(-c3cccc(F)c3)nc2)c1 [Compound 296, N-(3-tert-Butyl-phenyl)-6-(3-fluoro-phenyl)-nicotinamide], the pKi was > 6.00. In the case of CC(C)(C)c1ccc(NC(=O)c2ccc(-c3ccncc3)nc2)cc1 [Compound 11, [2,4′]Bipyridinyl-5-carboxylic acid (4-tert-butyl-phenyl)-amide], the pKi was > 6.00. With O=C(Nc1ccc(F)c(F)c1)c1ccc(-c2ncccc2F)cc1 [Compound 214, N-(3,4-Difluoro-phenyl)-4-(3-fluoro-pyridin-2-yl)-benzamide] the pKi was > 6.00. With CC(C)(C)c1ccc(NC(=O)c2ccc(-c3ccc(O)cc3)nc2)cc1 [Compound 450, N-(4-tert-Butyl-phenyl)-6-(4-hydroxy-phenyl)-nicotinamide] the pKi was > 6.00. With COc1cccc(NC(=O)c2ccc(-c3cccc(C(C)C)c3)nc2)c1 [Compound 131, 6-(3-Isopropyl-phenyl)-N-(3-methoxy-phenyl)-nicotinamide] the pKi was > 6.00. For CC(=O)N1CCCCC1c1ccc(C(=O)Nc2ccc(C(C)(C)C)cc2)cc1 (stereo not shown) [Compound 22, 4-(1-Acetyl-piperidin-2-yl)-N-(4-tert-butyl-phenyl)-benzamide], the pKi was > 6.00. CC(C)(C)c1ccc(NC(=O)c2ccc(-c3ncccc3F)cc2)cc1 [Compound 409, N-(4-tert-Butyl-phenyl)-4-(3-fluoro-pyridin-2-yl)-benzamide] was tested, and the pKi was > 6.00. With O=C(Nc1cccc(C(F)(F)F)c1)c1ccc(-c2ccccc2F)nc1 [Compound 88, 6-(2-Fluoro-phenyl)-N-(3-trifluoromethyl-phenyl)-nicotinamide] the pKi was > 6.00. In the case of CCC(C)c1ccc(NC(=O)c2cnc(-c3ccccc3Cl)cn2)cc1 (stereo not shown) [Compound 38, 5-(2-Chloro-phenyl)-pyrazine-2-carboxylic acid (4-sec-butyl-phenyl)-amide], the pKi was > 6.00. COc1ccccc1-c1ccc(C(=O)Nc2ccc(C(F)(F)F)cc2)cn1 [Compound 99, 6-(2-Methoxy-phenyl)-N-(4-trifluoromethyl-phenyl)-nicotinamide] was tested, and the pKi was > 6.00. Cc1cccc(-c2ccc(C(=O)Nc3ccc(C)c(C)c3)cn2)c1 [Compound 247, N-(3,4-Dimethyl-phenyl)-6-m-tolyl-nicotinamide] was tested, and the pKi was > 6.00. For CC(C)(C)c1ccc(NC(=O)c2ccc(-c3ccccc3C(F)(F)F)nc2)cc1 [Compound 447, N-(4-tert-Butyl-phenyl)-6-(2-trifluoromethyl-phenyl)-nicotinamide], the pKi was > 6.00. In the case of CC(C)(C)c1ccc(NC(=O)c2cnc(-c3ccccc3Cl)cn2)cc1 [Compound 39, 5-(2-Chloro-phenyl)-pyrazine-2-carboxylic acid (4-tert-butyl-phenyl)-amide], the pKi was > 6.00. CC(C)(C)c1ccc(NC(=O)c2ccc(-c3ccccc3C(F)(F)F)cc2O)cc1 [Compound 21, 3-Hydroxy-2′-trifluoromethyl-biphenyl-4-carboxylic acid (4-tert-butyl-phenyl)-amide] was tested, and the pKi was > 6.00. CC(C)(C)c1ccc(NC(=O)c2ccc(-c3ccncc3[N+](=O)[O-])cc2)cc1 [Compound 416, N-(4-tert-Butyl-phenyl)-4-(3-nitro-pyridin-4-yl)-benzamide] was tested, and the pKi was > 6.00. CC(C)(C)c1ccc(NC(=O)c2ccc(-c3ncccc3NC3CCCC3)cc2)cc1 [Compound 406, N-(4-tert-Butyl-phenyl)-4-(3-cyclopentylamino-pyridin-2-yl)-benzamide] was tested, and the pKi was > 6.00. For CC(C)(C)c1ccc(NC(=O)c2ccc(-c3ncccc3CN3CCCC3)cc2)cc1 [Compound 420, N-(4-tert-Butyl-phenyl)-4-(3-pyrrolidin-1-ylmethyl-pyridin-2-yl)-benzamide], the pKi was > 6.00. For CC(C)(C)[C@H]1CC[C@H](NC(=O)c2ccc(-c3ncccc3Cl)cc2)CC1 [Compound 392, N-(4-tert-Butyl-cyclohexyl)-4-(3-chloro-pyridin-2-yl)-benzamide (trans)], the pKi was > 6.00. For CC(C)(C)c1ccc(NC(=O)c2ccc(-c3ccccc3NS(C)(=O)=O)nc2)cc1 [Compound 445, N-(4-tert-Butyl-phenyl)-6-(2-methanesulfonylamino-phenyl)-nicotinamide], the pKi was > 6.00. For COCC(C)(C)c1ccc(NC(=O)c2ccc(-c3ncccc3Cl)cc2)cc1 [Compound 31, 4-(3-Chloro-pyridin-2-yl)-N-[4-(2-methoxy-1,1-dimethyl-ethyl)-phenyl]-benzamide], the pKi was > 6.00. With CC(C)(C)c1ccc(NC(=O)c2ccc(-c3ncccc3NO)cc2)cc1 [Compound 411, N-(4-tert-Butyl-phenyl)-4-(3-hydroxyamino-pyridin-2-yl)-benzamide] the pKi was > 6.00. For CCCNc1cccnc1-c1ccc(C(=O)Nc2ccc(C(C)(C)C)cc2)cc1 [Compound 419, N-(4-tert-Butyl-phenyl)-4-(3-propylamino-pyridin-2-yl)-benzamide], the pKi was > 6.00. In the case of Nc1cc(-c2ncccc2C(F)(F)F)ccc1C(=O)Nc1ccc(C(F)(F)F)nc1 [Compound 14, 2-Amino-N-(6-trifluoromethyl-pyridin-3-yl)-4-(3-trifluoromethyl-pyridin-2-yl)-benzamide], the pKi was > 6.00. For CCCc1ccc(NC(=O)c2ccc(-c3cc(Cl)ccc3OC)nc2)cc1 [Compound 157, 6-(5-Chloro-2-methoxy-phenyl)-N-(4-propyl-phenyl)-nicotinamide], the pKi was > 6.00. In the case of Cc1ccc(S(=O)(=O)Nc2cccnc2-c2ccc(C(=O)Nc3ccc(C(C)(C)C)cc3)cc2)cc1 [Compound 428, N-(4-tert-Butyl-phenyl)-4-[3-(toluene-4-sulfonylamino)-pyridin-2-yl]-benzamide], the pKi was > 6.00. Cc1nc2cc(NC(=O)c3ccc(-c4ccccc4F)nc3)ccc2s1 [Compound 85, 6-(2-Fluoro-phenyl)-N-(2-methyl-benzothiazol-5-yl)-nicotinamide] was tested, and the pKi was > 6.00. In the case of CC(C)(C)c1ccc(NC(=O)c2ccc(-c3ccccc3CO)nc2)cc1 [Compound 444, N-(4-tert-Butyl-phenyl)-6-(2-hydroxymethyl-phenyl)-nicotinamide], the pKi was > 6.00. For CCC(C)c1ccc(NC(=O)c2ccc(-c3ncccc3F)cc2)cc1 (stereo not shown) [Compound 390, N-(4-sec-Butyl-phenyl)-4-(3-fluoro-pyridin-2-yl)-benzamide], the pKi was > 6.00. CCCOc1cccnc1-c1ccc(C(=O)Nc2ccc(C(C)(C)C)cc2)cc1 [Compound 418, N-(4-tert-Butyl-phenyl)-4-(3-propoxy-pyridin-2-yl)-benzamide] was tested, and the pKi was > 6.00. CC(C)c1ccc(NC(=O)c2ccc(-c3ncccc3F)cc2)cc1 [Compound 34, 4-(3-Fluoro-pyridin-2-yl)-N-(4-isopropyl-phenyl)-benzamide] was tested, and the pKi was > 6.00.
